Experimental data published in patent publication US20260184742A1, “PEPTIDES” (CAROCELL BIO LIMITED, priority 2022, published 2026).
Where two headings read alike, the source gives them in different places. Where no end group is shown, it is not given here.

How the values were obtained:
[1] = system: pro-inflammatory cytokines including Th1 (IFNγ, TNFα, IL-1β) and Th2 cytokines (IL-13 and IL-4); test: Cytokine levels from the Skimune assays; conditions: current concentrations and lipid formulation; GvHD type assays
[2] = system: AD phenotype of skin biopsies (white space; Filaggrin, Involucrin, TSLP); test: Atopic Dermatitis (AD) model in skin biopsies; format: cell-based; conditions: for phenotype: donor ALC1373, 0.1 and 1.0 μg/ml, appeared an improvement above Clobetasol; for phenotype ("white space") analysis: 0.1, 1.0 and 2.5 μg/ml, not as apparent as Clobetasol
Procedure: The AD phenotype was assessed by measuring the intensity of the “white space” within the biopsies—this was increased from 20% in the media alone control to 80% on AD induction and reduced with Clobetasol (a topical corticosteroid) to 40%. All concentrations of the compound (JEL0305, JEL2603, JEL1103 or JEL0802) reduced the white space by between 50 and 60% as a similar trend to Clobetasol. Three further donors (ALC1373, ALC1366 and ALC1365) were used to develop atopic dermatitis after treatment with activated PBMC and a cytokine cocktail model and assessed phenotypically as well as by biomarker (Filaggrin, Involucrin and TSLP) by immunohistochemistry. For 2 donors (ALC1366 and ALC1365) Filaggrin and Involucrin were reduced compared non-AD induced skin biopsies in media alone. This is the expected response for AD induction. In the presence of the control drug Clobetasol the expression of Filaggrin and Involucrin was increased due to the drug reversing the AD phenotype. […] But this was not as apparent as Clobetasol more than likely due to the lipid formulation causing an upregulation of cytokines. […] Filaggrin results were inconclusive.

[3] = system: human TNFα in activated M1-macrophages (THP1-derived, LPS-activated); test: In vitro anti-inflammatory activity (ELISA), TNFα as marker; format: cell-based; conditions: compared with T0, 100 ng/mL
Procedure: The anti-inflammatory response of each free peptide and each peptide-polymer formulation was determined using TNFα as a marker. The anti-inflammatory bioactivity was assessed using enzyme-linked immunosorbent assay (ELISA) for quantitative detection of human TNFα in activated M1-macrophages. THP1 human monocytes were differentiated into macrophages (M0), which were then activated (overnight) with lipopolysaccharide (LPS) into M1-macrophages. LPS prompts the abundant production of many pro-inflammatory cytokines from macrophages, including TNF-α, which actively contributes to the inflammatory response. At the T0 and T4 (after 4 weeks storage at RT or 4° C.) time points, each JEL peptide and each JEL-polymer formulation was incubated in previously LPS-activated M1-macrophages for 24 h at 37° C. After incubation, supernatants were collected, centrifuged and stored at −80° C. in readiness for the enzyme-linked immunosorbent assay (ELISA). Each supernatant sample was defrosted and the ELISA assay undertaken according to the Invitrogen protocol. FIGS. 1-4 show the concentrations of human TNFα detected by ELISA after incubation with each free and polymer loaded peptide at a concentration of 100 ng/mL.

[4] = system: HLA (human leucocyte antigen) mismatched GvHD model; test: Skimune skin explant assay, HLA mismatched GvHD model; format: cell-based; conditions: LNP formulation of the compound, added throughout the mixed lymphocyte reaction and spiked into the skin explant
[5] = system: pro-inflammatory cytokines including Th1 (IFNγ, TNFα, IL-1β) and Th2 cytokines (IL-13 and IL-4)
[6] = donors ALC1366 and ALC1365, compound at 0.1, 1.0 and 2.5 μg/ml
[7] = after 4 weeks storage at room temperature (RT)

Molecule: SRALLIFQKI [JEL0802, Ser-Arg-Ala-Leu-Leu-Ile-Phe-Gln-Lys-Ile]
- pro-inflammatory cytokines [1]: significant increases

Molecule: C[C@H]1C[C@H]2[C@@H]3CCC4=CC(=O)C=C[C@]4(C)[C@@]3(F)[C@@H](O)C[C@]2(C)[C@@]1(O)C(=O)CCl [Clobetasol, reference compound]
- intensity of the "white space" within the biopsies ([2]; 20% in media alone control, 80% on AD induction): 40%
- Filaggrin expression by immunohistochemistry [2, 6]: increased
- Involucrin expression by immunohistochemistry [2, 6]: increased

Molecule: VSRATRIFKLSQLRGQCA [JEL0305, Val-Ser-Arg-Ala-Thr-Arg-Ile-Phe-Lys-Leu-Ser-Gln-Leu-Arg-Gly-Gln-Cys-Ala]
- pro-inflammatory cytokines [1]: significant increases

Molecule: SRALKIFLATRKDRSPWH [JEL2603]
- phenotype [2]: some improvement of the phenotype
- phenotype ("white space") analysis ([2]; donors ALC1366 and ALC1365): improved and reversal of damage
- anti-inflammatory activity (human TNFα detected by ELISA) after storage ([3]; after 4 weeks storage at 4° C.): some diminution of anti-inflammatory activity
- anti-inflammatory activity (human TNFα detected by ELISA) after storage [3, 7]: activity is lost
- Graft versus Host reaction grade [4]: Grade III
- inhibition of the Graft versus Host response [4]: no inhibition
- pro-inflammatory cytokines [5]: significant increases

Molecule: HKSRARLIFHEGPCGVRR [JEL1103]
- phenotype [2]: some improvement of the phenotype
- phenotype ("white space") analysis ([2]; donors ALC1366 and ALC1365): improved and reversal of damage
- anti-inflammatory activity (human TNFα detected by ELISA) after storage ([3]; after 4 weeks storage at 4° C.): maintained
- anti-inflammatory activity (human TNFα detected by ELISA) after storage [3, 7]: maintained
- Graft versus Host reaction grade [4]: Grade III
- inhibition of the Graft versus Host response [4]: no inhibition
- pro-inflammatory cytokines [5]: significant increases
